Experimental data from patent publication US20250170136A1, “1,2,4-TRIAZIN-3(2H)-ONE COMPOUNDS FOR THE TREATMENT OF HYPERPROLIFERATIVE DISEASES” (BAYER AKTIENGESELLSCHAFT, priority 2019, published 2025).
pIC50: −log10 of the molar value. Marks after values point to notes of the source that are not given here.

Assays:
[1] = target: human full length PDE3B (Homo sapiens (Human), UniProt Q13370); test: PDE3B enzyme inhibition (3H-cAMP Scintillation Proximity Assay); assay type: biochemical; details: Sf9 cell extract, 60 min room temperature
Sequence of human full length PDE3B (Q13370 whole entry): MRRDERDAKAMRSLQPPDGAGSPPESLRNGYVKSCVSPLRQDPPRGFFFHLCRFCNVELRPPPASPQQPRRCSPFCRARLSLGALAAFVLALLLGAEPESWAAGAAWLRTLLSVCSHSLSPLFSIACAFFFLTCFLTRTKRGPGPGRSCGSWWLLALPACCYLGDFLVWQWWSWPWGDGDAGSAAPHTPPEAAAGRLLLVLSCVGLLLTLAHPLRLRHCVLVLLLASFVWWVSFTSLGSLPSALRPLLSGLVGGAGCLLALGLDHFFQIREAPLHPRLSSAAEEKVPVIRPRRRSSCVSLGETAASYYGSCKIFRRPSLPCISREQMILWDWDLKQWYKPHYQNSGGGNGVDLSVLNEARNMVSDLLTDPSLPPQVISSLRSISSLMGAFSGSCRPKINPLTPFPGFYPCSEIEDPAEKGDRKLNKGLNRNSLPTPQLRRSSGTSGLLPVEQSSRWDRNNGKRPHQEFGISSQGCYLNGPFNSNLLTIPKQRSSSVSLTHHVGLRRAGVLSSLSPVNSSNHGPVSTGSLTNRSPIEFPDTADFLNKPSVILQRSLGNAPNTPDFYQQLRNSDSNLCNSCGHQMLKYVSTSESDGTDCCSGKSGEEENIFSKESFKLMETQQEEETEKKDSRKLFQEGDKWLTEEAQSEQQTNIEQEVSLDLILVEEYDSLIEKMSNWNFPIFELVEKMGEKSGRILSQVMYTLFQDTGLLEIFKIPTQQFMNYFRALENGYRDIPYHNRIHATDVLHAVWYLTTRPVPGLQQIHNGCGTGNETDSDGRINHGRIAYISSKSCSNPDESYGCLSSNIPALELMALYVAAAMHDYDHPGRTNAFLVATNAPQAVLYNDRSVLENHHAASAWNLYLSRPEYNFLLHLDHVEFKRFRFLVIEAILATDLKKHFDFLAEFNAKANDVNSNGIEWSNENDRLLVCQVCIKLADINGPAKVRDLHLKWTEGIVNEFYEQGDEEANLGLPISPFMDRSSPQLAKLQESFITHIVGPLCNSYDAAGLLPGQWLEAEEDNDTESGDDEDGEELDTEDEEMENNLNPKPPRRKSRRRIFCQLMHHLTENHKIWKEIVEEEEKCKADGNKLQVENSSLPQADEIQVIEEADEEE
Description: (§1) The commercially available 3H-cAMP Scintillation Proximity Assay (SPA, Perkin Elmer) system was used for enzyme inhibition studies. For the determination of the in vitro effect of example compounds on the PDE3B reactions 2 μl of the respective example compound solution in DMSO (serial dilutions) were placed in wells of microtiter plates (Isoplate-96/200W; Perkin Elmer). 50 μl of a dilution of PDE3B cell extract from Sf9 cells overexpressing human full length PDE3B (SB Drug Discovery, UK) in buffer A (50 mM Tris/HCl pH 7.5, 8.3 mM MgCl2, 1.7 mM EDTA, 0.2% BSA) was added. The dilution of the PDE3B cell extract was chosen such that the reaction kinetics was linear and less than 70% of the substrate was consumed (typical dilution 1:6000). The reaction was started by addition of 50 μl (0.025 μCi) of 1:2000 in buffer A w/o BSA diluted substrate [8-3H]adenosine 3′, 5′-cyclic phosphate (1 μCi/μl; Perkin Elmer). After incubation at room temperature for 60 min, the reaction was stopped by addition of 25 μl of a suspension containing 18 mg/ml yttrium scintillation proximity beads (Perkin Elmer) in water. The microtiter plates were sealed and measured in a Microbeta scintillation counter (PerkinElmer Wallac). IC50 values were determined from sigmoidal curves by plotting percentage PDE3B activity vs log compound concentration.

[2] = target: human full length PDE3A (Homo sapiens (Human), UniProt Q14432); test: PDE3A enzyme inhibition (3H-cAMP Scintillation Proximity Assay); assay type: biochemical; details: Sf9 cell extract, 60 min room temperature
Sequence of human full length PDE3A (Q14432 whole entry): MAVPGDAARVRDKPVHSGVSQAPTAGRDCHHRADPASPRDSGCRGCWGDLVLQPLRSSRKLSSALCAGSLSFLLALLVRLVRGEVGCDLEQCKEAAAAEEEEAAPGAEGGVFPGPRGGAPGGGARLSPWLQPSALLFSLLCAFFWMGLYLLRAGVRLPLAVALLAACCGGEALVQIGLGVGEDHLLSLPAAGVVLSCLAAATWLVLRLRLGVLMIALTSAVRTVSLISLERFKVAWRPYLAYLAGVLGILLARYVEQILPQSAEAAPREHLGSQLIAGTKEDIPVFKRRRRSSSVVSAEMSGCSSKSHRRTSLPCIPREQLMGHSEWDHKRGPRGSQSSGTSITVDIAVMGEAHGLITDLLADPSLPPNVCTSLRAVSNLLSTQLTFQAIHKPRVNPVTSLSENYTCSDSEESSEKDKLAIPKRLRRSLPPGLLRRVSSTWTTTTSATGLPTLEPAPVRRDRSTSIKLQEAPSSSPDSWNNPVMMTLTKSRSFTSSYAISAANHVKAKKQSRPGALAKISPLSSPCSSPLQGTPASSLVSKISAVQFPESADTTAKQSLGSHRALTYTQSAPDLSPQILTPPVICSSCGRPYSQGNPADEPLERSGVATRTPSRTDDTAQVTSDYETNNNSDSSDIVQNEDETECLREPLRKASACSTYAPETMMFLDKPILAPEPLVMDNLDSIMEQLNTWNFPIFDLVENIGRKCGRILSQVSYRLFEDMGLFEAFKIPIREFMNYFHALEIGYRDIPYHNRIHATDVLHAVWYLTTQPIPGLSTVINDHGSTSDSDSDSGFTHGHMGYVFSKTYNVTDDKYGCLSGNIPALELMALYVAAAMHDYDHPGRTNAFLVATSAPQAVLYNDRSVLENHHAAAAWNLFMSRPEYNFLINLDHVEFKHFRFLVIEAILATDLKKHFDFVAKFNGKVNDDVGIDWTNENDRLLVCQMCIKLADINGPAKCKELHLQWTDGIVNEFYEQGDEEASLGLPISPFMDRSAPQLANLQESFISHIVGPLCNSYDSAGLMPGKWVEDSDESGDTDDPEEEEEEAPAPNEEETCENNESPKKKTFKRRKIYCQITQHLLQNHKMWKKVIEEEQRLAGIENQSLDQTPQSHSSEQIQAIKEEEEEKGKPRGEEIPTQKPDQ
Description: as §1, with “PDE3A” for “PDE3B”, “1:5000).” for “1:6000).”

[3] = test system: IGR-37 melanoma xenograft; test: In vivo xenotransplantation model of human cancer; set-up: species or system mice; details: for T/C: IGR-37 Melanoma, mean final tumor weight treatment vs control, study end
From the text: The anti-tumor activity of Example 1, ((5S)-5-methyl-6-{3-(trifluoromethyl)-4-[3-(trifluoromethyl)-1H-pyrazol-1-yl]phenyl}-4,5-dihydro-1,2,4-triazin-3(2H)-one), was examined in murine xenotransplantation models of human cancer. For this purpose, mice were implanted subcutaneously with tumor cells. At a mean tumor size of 20-40 mm^2 animals were randomized into treatment and control groups (at least n=10 animals/group) and treatment started with vehicle only or Example 1 (formulation: 90% PEG400/10% Ethanol; application route: per os (“p.o.”), orally). The oral application volume was 10 ml/kg. In the case of twice daily treatments, the time interval between two applications per day was 6-7 h. The tumor size and the body weight were determined at least weekly. The tumor area was detected by means of an electronic caliper [length (mm)×width (mm)]. The experiment was ended when the tumors of the vehicle control reached the pre-determined ethical endpoint based on German and European animal welfare regulations. In vivo anti-tumor efficacy is presented as T/C ratio at study end (Treatment/Control; mean tumor area or weight of treatment group/mean tumor area or weight of control group) in Table 7. A compound having a T/C below 0.5 is defined as active (i.e., effective). Statistical analysis was assessed using SigmaStat software. A one-way analysis of variance was performed and differences to the control were compared by a pair-wise comparison procedure (Dunn's method).

[4] = In vivo pharmacokinetics in rats (i.v.); details: Rat/male/Wistar, 0.5 mg/kg i.v., Plasma 95% + EtOH 4% + DMSO 1%
Description: For in vivo pharmacokinetic experiments test compounds were administered to female CD-1 mice, male Wistar rats, Beagle dogs or Cynomolgus monkeys intravenously at doses of 0.3 to 1 mg/kg formulated as solutions using solubilizers such as PEG400 in well-tolerated amounts.
Studies may also have been performed as cassette administrations of up to 3 compounds given together simultaneously in low doses.
For pharmacokinetics after intravenous administration test compounds were given in the female mice and male rat as i.v. bolus and in dogs and monkeys as short term infusion (15 min). Blood samples were taken e.g. at 2 min, 8 min, 15 min, 30 min, 45 min, 1 h, 2 h, 4 h, 6 h, 8 h and 24 h after dosing from the vena jugularis (mouse, rat) or vena saphena (dog, monkey). […] PK parameters were calculated by non-compartmental analysis using a PK calculation software (e.g. Phoenix WinNonlin®, Certara USA, Inc.).
PK parameters derived from concentration-time profiles after i.v.: CLplasma (in L/kg/h): Total plasma clearance of test compound calculated by dose (in μg/kg) divided by area under the concentration-time curve from t=0 h to infinity (extrapolated) (AUCinf in μg*h/L); CLblood: Total blood clearance of test compound: CLplasma*Cp/Cb (in L/kg/h) with Cp/Cb being the ratio of test compound concentrations in plasma and blood. […]

Q: With `C[C@@H]1NC(=O)NN=C1c1ccc(-n2ccc(C(F)(F)F)n2)c(C(F)(F)F)c1` [Example 1, (5S)-5-methyl-6-{3-(trifluoromethyl)-4-[3-(trifluoromethyl)-1H-pyrazol-1-yl]phenyl}-4,5-dihydro-1,2,4-triazin-3(2H)-one] as the compound, how does the pIC50 [1] read?
A: 7.09

Q: And the pIC50 [2]?
A: 7.04

Q: And the T/C ([3]; 1 mg/kg 2QD p.o.)?
A: 0.06 *

Q: What about the T/C ([3]; 2 mg/kg 2QD p.o.) of the same compound?
A: 0.06 *

Q: And the T/C ([3]; 4 mg/kg 2QD p.o.)?
A: 0.06 *

Q: And the T/C ([3]; 4 mg/kg QD p.o.)?
A: 0.07 *

Q: What about the “anti-tumor efficacy (reduction of tumor area)” value ([3]; xenograft model of human tumors, melanoma, monotherapy) of the same compound?
A: effective in reduction of tumor area in melanoma

Q: What about the CLblood [4] of the same compound?
A: 3.67 mL/min/kg
